# Experimental data published in patent publication US10722501B2 (BAYER AKTIENGESELLSCHAFT, priority 2016, dated 2020).
# Molecular target: T1, recombinant full-length human prolyl endopeptidase (PREP) (Homo sapiens, UniProt P48147)
# T1 construct: To recombinant full-length human prolyl endopeptidase (PREP, R&D-Systems, 4308-SE); purchased R&D-Systems 4308-SE
# T1 sequence (P48147 1-710): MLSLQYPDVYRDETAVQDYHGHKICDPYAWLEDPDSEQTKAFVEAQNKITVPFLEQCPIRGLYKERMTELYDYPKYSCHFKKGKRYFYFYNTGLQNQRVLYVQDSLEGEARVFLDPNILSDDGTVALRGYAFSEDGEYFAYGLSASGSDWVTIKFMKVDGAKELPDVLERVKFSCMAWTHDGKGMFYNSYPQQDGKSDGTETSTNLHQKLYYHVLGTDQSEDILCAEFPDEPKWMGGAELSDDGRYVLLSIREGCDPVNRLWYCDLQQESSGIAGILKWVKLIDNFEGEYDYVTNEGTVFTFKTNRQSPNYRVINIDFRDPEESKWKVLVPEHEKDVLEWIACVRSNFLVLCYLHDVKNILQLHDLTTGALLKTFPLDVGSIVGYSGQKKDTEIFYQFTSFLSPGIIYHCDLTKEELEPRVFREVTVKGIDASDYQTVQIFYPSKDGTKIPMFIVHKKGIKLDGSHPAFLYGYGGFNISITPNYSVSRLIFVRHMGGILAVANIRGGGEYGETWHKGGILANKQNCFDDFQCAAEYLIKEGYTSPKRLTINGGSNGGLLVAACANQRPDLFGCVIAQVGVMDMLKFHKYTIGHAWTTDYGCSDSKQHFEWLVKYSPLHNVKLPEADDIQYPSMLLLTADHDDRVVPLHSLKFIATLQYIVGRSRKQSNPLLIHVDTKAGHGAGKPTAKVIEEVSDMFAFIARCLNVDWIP
# Assay: Biochemical human prolyl endopeptidase (PREP) assay with fluorescently labelled substrate
# Details: substrate Z-Gly-Pro-AMC 50 μM, 32° C., 60 min; some as mean values from multiple independent determinations
# Procedure, shortened: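 0.4 nM (final, example) recombinant PREP in pH 7.5 Tris buffer with EDTA, GSH, BSA and Brij-35; compounds at 1 nM to 30 μM. Reaction started with 50 μM Z-Gly-Pro-AMC and followed by fluorescence (ex 360/em 465 nm) at 32° C for 60 min. IC50 interpolated from percent activity based on initial slopes.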
row,SMILES,IC50 [nM]
1,"O=C([C@@H]1CCC(F)(F)c2nn(Cc3ccc(C(F)(F)F)nc3)c(=O)n21)N1CC[C@H](F)C1 [Example 278, (5S)-8,8-Difluoro-5-{[(3S)-3-fluoropyrrolidin-1-yl]carbonyl}-2-{[6-(trifluoromethyl)pyridin-3-yl]methyl}-5,6,7,8-tetrahydro[1,2,4]triazolo[4,3-a]pyridin-3(2H)-one]",3.3
2,"O=C([C@@H]1CCCc2nn(CCc3ncc(C(F)(F)F)cc3Cl)c(=O)n21)N1CC[C@H](F)C1 [Example 342, (5S)-2-{2-[3-Chloro-5-(trifluoromethyl)pyridin-2-yl]ethyl}-5-{[(3S)-3-fluoropyrrolidin-1-yl]carbonyl}-5,6,7,8-tetrahydro[1,2,4]triazolo[4,3-a]pyridin-3(2H)-one]",1.75
3,"O=C([C@@H]1CCCc2nn(CCc3ncc(C(F)(F)F)cc3Cl)c(=O)n21)N1CCC(F)(F)C1 [Example 343, (5S)-2-{2-[3-Chloro-5-(trifluoromethyl)pyridin-2-yl]ethyl}-5-[(3,3-difluoropyrrolidin-1-yl)carbonyl]-5,6,7,8-tetrahydro[1,2,4]triazolo[4,3-a]pyridin-3(2H)-one]",7.9
4,"O=C([C@@H]1CCCc2nn(CCc3ccc(F)cc3)c(=O)n21)N1CC(F)(F)C1 [Example 345, (5S)-5-[(3,3-Difluoroazetidin-1-yl)carbonyl]-2-[2-(4-fluorophenyl)ethyl]-5,6,7,8-tetrahydro[1,2,4]triazolo[4,3-a]pyridin-3(2H)-one]",6.4
5,"COc1ccc(CCn2nc3n(c2=O)[C@H](C(=O)N2CCC(F)(F)C2)CCC3)cc1 [Example 346, (5S)-5-[(3,3-Difluoropyrrolidin-1-yl)carbonyl]-2-[2-(4-methoxyphenyl)ethyl]-5,6,7,8-tetrahydro[1,2,4]triazolo[4,3-a]pyridin-3(2H)-one]",4.2
6,"COc1ccc(CCn2nc3n(c2=O)[C@H](C(=O)N2CC(F)C2)CCC3)cc1 [Example 347, (5S)-5-[(3-Fluoroazetidin-1-yl)carbonyl]-2-[2-(4-methoxyphenyl)ethyl]-5,6,7,8-tetrahydro[1,2,4]triazolo[4,3-a]pyridin-3(2H)-one]",4.8
7,"O=C([C@@H]1CCCc2nn(CC3(c4cccc(Cl)n4)CC3)c(=O)n21)N1CC(F)C1 [Example 348, (5S)-2-{[1-(6-Chloropyridin-2-yl)cyclopropyl]methyl}-5-[(3-fluoroazetidin-1-yl)carbonyl]-5,6,7,8-tetrahydro[1,2,4]triazolo[4,3-a]pyridin-3(2H)-one]",3.8
8,"O=C([C@@H]1CCCc2nn(CC3(c4ccc(F)cc4)CC3)c(=O)n21)N1CCC(F)(F)C1 [Example 353, (5S)-5-[(3,3-Difluoropyrrolidin-1-yl)carbonyl]-2-{[1-(4-fluorophenyl)cyclopropyl]methyl}-5,6,7,8-tetrahydro[1,2,4]triazolo[4,3-a]pyridin-3(2H)-one]",2.3
9,"Cc1ccc(C2(Cn3nc4n(c3=O)[C@H](C(=O)N3CC(O)C3)CCC4)CC2)cc1 [Example 354, (5S)-5-[(3-Hydroxyazetidin-1-yl)carbonyl]-2-{[1-(4-methylphenyl)cyclopropyl]methyl}-5,6,7,8-tetrahydro[1,2,4]triazolo[4,3-a]pyridin-3(2H)-one]",19

# These reach a lower IC50. Values come first.
row,IC50 [nM],SMILES
1,1.6,"O=C([C@@H]1CCCc2nn(CC3(c4ccc(F)cc4)CC3)c(=O)n21)N1CC(F)C1 [Example 351, (5S)-5-[(3-Fluoroazetidin-1-yl)carbonyl]-2-{[1-(4-fluorophenyl)cyclopropyl]methyl}-5,6,7,8-tetrahydro[1,2,4]triazolo[4,3-a]pyridin-3(2H)-one]"
2,1.45,"O=C([C@@H]1CCCc2nn(CC3(c4cccc(Cl)n4)CC3)c(=O)n21)N1CCC(F)(F)C1 [Example 349, (5S)-2-{[1-(6-Chloropyridin-2-yl)cyclopropyl]methyl}-5-[(3,3-difluoropyrrolidin-1-yl)carbonyl]-5,6,7,8-tetrahydro[1,2,4]triazolo[4,3-a]pyridin-3(2H)-one]"
3,1.3,"Cc1ccc(C2(Cn3nc4n(c3=O)[C@H](C(=O)N3CC(F)C3)CCC4)CC2)cc1 [Example 355, (5S)-5-[(3-Fluoroazetidin-1-yl)carbonyl]-2-{[1-(4-methylphenyl)cyclopropyl]methyl}-5,6,7,8-tetrahydro[1,2,4]triazolo[4,3-a]pyridin-3(2H)-one]"
4,1.2,"CCn1nc(C(F)(F)F)cc1Cn1nc2n(c1=O)[C@H](C(=O)N1C[C@@H](F)[C@@H](F)C1)CCC2 [Example 361, (5S)-5-{[(3R,4S)-3,4-Difluoropyrrolidin-1-yl]carbonyl}-2-{[1-ethyl-3-(trifluoromethyl)-1H-pyrazol-5-yl]methyl}-5,6,7,8-tetrahydro[1,2,4]triazolo[4,3-a]pyridin-3(2H)-one]"
5,1.1,"O=C([C@@H]1CCCc2nn(CC3(c4ccc(F)cc4F)CC3)c(=O)n21)N1CCC(F)(F)C1 [Example 359, (5S)-2-{[1-(2,4-Difluorophenyl)cyclopropyl]methyl}-5-[(3,3-difluoropyrrolidin-1-yl)carbonyl]-5,6,7,8-tetrahydro[1,2,4]triazolo[4,3-a]pyridin-3(2H)-one]"
6,0.81,"CCn1nc(C(F)(F)F)cc1Cn1nc2n(c1=O)[C@H](C(=O)N1CC[C@H](F)C1)CCC2 [Example 360, (5S)-2-{[1-Ethyl-3-(trifluoromethyl)-1H-pyrazol-5-yl]methyl}-5-{[(3S)-3-fluoropyrrolidin-1-yl]carbonyl}-5,6,7,8-tetrahydro[1,2,4]triazolo[4,3-a]pyridin-3(2H)-one]"
7,0.53,"O=C([C@@H]1CCCc2nn(CCc3ccc(F)cc3)c(=O)n21)N1C[C@@H](F)[C@@H](F)C1 [Example 344, (5S)-5-{[(3R,4S)-3,4-Difluoropyrrolidin-1-yl]carbonyl}-2-[2-(4-fluorophenyl)ethyl]-5,6,7,8-tetrahydro[1,2,4]triazolo[4,3-a]pyridin-3(2H)-one]"
8,0.43,"COc1ccc(C2(Cn3nc4n(c3=O)[C@H](C(=O)N3CC(F)C3)CCC4)CC2)cc1 [Example 357, (5S)-5-[(3-Fluoroazetidin-1-yl)carbonyl]-2-{[1-(4-methoxyphenyl)cyclopropyl]methyl}-5,6,7,8-tetrahydro[1,2,4]triazolo[4,3-a]pyridin-3(2H)-one]"
9,0.35,"O=C([C@@H]1CCCc2nn(CC3(c4cccc(Cl)n4)CC3)c(=O)n21)N1CC[C@H](F)C1 [Example 350, (5S)-2-{[1-(6-Chloropyridin-2-yl)cyclopropyl]methyl}-5-{[(3S)-3-fluoropyrrolidin-1-yl]carbonyl}-5,6,7,8-tetrahydro[1,2,4]triazolo[4,3-a]pyridin-3(2H)-one]"
10,0.32,"O=C([C@@H]1CCCc2nn(CC3(c4ccc(F)cc4)CC3)c(=O)n21)N1CC[C@H](F)C1 [Example 352, (5S)-2-{[1-(4-Fluorophenyl)cyclopropyl]methyl}-5-{[(3S)-3-fluoropyrrolidin-1-yl]carbonyl}-5,6,7,8-tetrahydro[1,2,4]triazolo[4,3-a]pyridin-3(2H)-one]"
11,0.3,"O=C([C@@H]1CCCc2nn(CC3(c4ccc(C(F)(F)F)cc4)CC3)c(=O)n21)N1CC[C@H](F)C1 [Example 356, (5S)-5-{[(3S)-3-Fluoropyrrolidin-1-yl]carbonyl}-2-({1-[4-(trifluoromethyl)phenyl]cyclopropyl}methyl)-5,6,7,8-tetrahydro[1,2,4]triazolo[4,3-a]pyridin-3(2H)-one]"
12,0.068,O=C([C@@H]1CCCc2nn(CC3(c4ccc(F)cc4F)CC3)c(=O)n21)N1CC[C@H](F)C1 [Example 358]
